Experimental data from article PMC7946228, “Discovery of novel candidates for anti-liposarcoma therapies by medium-scale high-throughput drug screening” (PLoS ONE, 2021).
Read-outs that look alike come from different tables or passages of the source.

What was measured:
[1] = tested on: FU-DDLS-1 liposarcoma cell line; assay: CellTiter-Glo viability, GR50, 72h; format: cell-based, human; conditions: FU-DDL S-1, 72h; read-out: Half maximum effective concentration corrected for cell growth (GR50)
Experimental: (§1) Cell viability was measured using the CellTiter-Glo Luminescent Cell Viability Assay (Promega, Wisconsin, United States). For each experiment the same cell numbers were seeded as for the proliferation experiments. Seven drug concentrations were used, starting from 100μM with 10-fold dilutions and also a vehicle control appropriate for each drug (DMSO or ethanol). After 72h of drug or vehicle control treatment levels of ATP were measured with CellTiter-Glo. The data from six to nine biological replicates, each with three technical replicates were collected. A nonlinear regression model with different four-parameter log-logistic function was used for modelling of the drug dose-response using ‘GRmetrics’ R package version 1.8.1 [26]. The calculated GR50 metric is equivalent to the IC50 metric but takes into account the growth rate of cells. Therefore, it estimates better the effect of the compound on cell viability and allows for comparison between different cell lines with different growth rates.

[2] = tested on: GOT3 liposarcoma cell line; assay: CellTiter-Glo viability, GR50, 72h; format: cell-based, human; conditions: GOT3, 72h; read-out: Half maximum effective concentration corrected for cell growth (GR50)
Experimental: as §1

[3] = tested on: LPS141 liposarcoma cell line; assay: CellTiter-Glo viability, GR50, 72h; format: cell-based, human; conditions: LPS 141, 72h; read-out: Half maximum effective concentration corrected for cell growth (GR50)
Experimental: as §1

[4] = tested on: LPS510 liposarcoma cell line; assay: CellTiter-Glo viability, GR50, 72h; format: cell-based, human; conditions: LPS 510, 72h; read-out: Half maximum effective concentration corrected for cell growth (GR50)
Experimental: as §1

[5] = tested on: LPS853 liposarcoma cell line; assay: CellTiter-Glo viability, GR50, 72h; format: cell-based, human; conditions: LPS 853, 72h; read-out: Half maximum effective concentration corrected for cell growth (GR50)
Experimental: as §1

[6] = tested on: LS2 liposarcoma cell line; assay: CellTiter-Glo viability, GR50, 72h; format: cell-based, human; conditions: LS2, 72h; read-out: Half maximum effective concentration corrected for cell growth (GR50)
Experimental: as §1

[7] = tested on: LiSa-2 liposarcoma cell line; assay: CellTiter-Glo viability, GR50, 72h; format: cell-based, human; conditions: LiSa-2, 72h; read-out: Half maximum effective concentration corrected for cell growth (GR50)
Experimental: as §1

[8] = tested on: NRH-LS1 liposarcoma cell line; assay: CellTiter-Glo viability, GR50, 72h; format: cell-based, human; conditions: NRH-LS1, 72h; read-out: Half maximum effective concentration corrected for cell growth (GR50)
Experimental: as §1

[9] = tested on: SA-4 liposarcoma cell line; assay: CellTiter-Glo viability, GR50, 72h; format: cell-based, human; conditions: SA-4, 72h; read-out: Half maximum effective concentration corrected for cell growth (GR50)
Experimental: as §1

[10] = tested on: SW872 liposarcoma cell line; assay: CellTiter-Glo viability, GR50, 72h; format: cell-based, human; conditions: SW 872, 72h; read-out: Half maximum effective concentration corrected for cell growth (GR50)
Experimental: as §1

[11] = tested on: T1000 liposarcoma cell line; assay: CellTiter-Glo viability, GR50, 72h; format: cell-based, human; conditions: T1000, 72h; read-out: Half maximum effective concentration corrected for cell growth (GR50)
Experimental: as §1

[12] = tested on: T449 liposarcoma cell line; assay: CellTiter-Glo viability, GR50, 72h; format: cell-based, human; conditions: T449, 72h; read-out: Half maximum effective concentration corrected for cell growth (GR50)
Experimental: as §1

[13] = tested on: T778 liposarcoma cell line; assay: CellTiter-Glo viability, GR50, 72h; format: cell-based, human; conditions: T778, 72h; read-out: Half maximum effective concentration corrected for cell growth (GR50)
Experimental: as §1

liposarcoma cell lines [14] = assay: IncuCyte cell proliferation assay (growth reducing/arresting concentration); format: cell-based, human; conditions: complete growth arrest between 96 and 120h
Experimental: The cellular proliferation rate was measured using the IncuCyte ZOOM live-cell imaging system (Essen Bioscience, Birmingham, UK) with the corresponding software application (version 2013BRev1). First the growth rate for each cell line was established to estimate the seeding numbers of cells corresponding to 15-30% of confluence at the start of the experiment and maximum 70% after 72h. The drug treatment was initiated approximately 18h after seeding. The proliferation rate was measured as cell confluence over time through the acquisition of photographs under phase contrast every third hour for the entire duration of the drug treatment. During the drug treatment, media were not changed, and cells were not split. The growth reducing drug concentration was defined as lowest drug concentration leading to significant decrease of cellular growth between 40 and 72h after start of treatment. To determine that concentration, plots were generated using IncuCyte software and differences in growth between 40 and 72h were calculated using least-square means with the '[…] package version 1.4.3 [25]. Growth arresting concentrations were defined as minimal drug concentration under which cell confluence between 96 and 120h increases by less than 3%. Though growth arrest occurred much earlier, these time points ensured that the growth arrest is a stable phenomenon. These growth arresting concentrations were used for drug withdrawal, apoptosis and cell cycle experiments. All the data were verified with the plots. The presented values correspond to median values from two ([…], all compounds) to five (all cell lines, triptolide) biological replicates.

liposarcoma cell lines [15] = assay: TUNEL apoptosis assay by flow cytometry; format: cell-based, human; conditions: growth arresting concentration, 17-72h, majority of cell lines
Experimental: (§2) Cells were treated with drugs at the concentrations corresponding to previously established growth arresting concentrations and collected between 17 and 72h. Time of collection was individual for every drug/cell line combination; cells were collected after the beginning of complete growth inhibition (based on the growth curves data) but only when first signs of morphological change or cell death were visible (estimated microscopically approximately every 2h). After methanol fixation, cells were barcoded with different combinations of Pacific Blue/Pacific Orange dyes (Thermo Fisher Scientific) for different drug treatments. After mixing, cells were incubated in the TUNEL reaction mix for 1h at 37°C, according to the manufacturer’s instructions (Roche, Germany), stained with Streptavidin-Cy5 conjugated Ab and digested with RNAse. Cells were counter-stained with propidium iodide and analyzed using LSR II Flow Cytometer (BD Biosciences, NJ, USA. The data were processed with FlowJo Version 7.6.5 (Tree Star, Ashland, USA). The gating strategy is presented in Fig 3A. Cy-5 positive cells (as compared to control sample) were calculated as apoptotic. Cell cycles of non-apoptotic cells were analyzed using the built in FlowJo Cell Cycle Analysis module. Three independent biological replicates were done for each cell line/drug combination with exception of FU-DDLS-1 and T1000 –for which we only had two replicates available.

liposarcoma cell lines [16] = assay: Cell cycle analysis of non-apoptotic cells (propidium iodide); format: cell-based, human; conditions: growth arresting concentration, non-apoptotic fraction
Experimental: as §2

liposarcoma cell lines [17] = assay: Drug withdrawal, reversibility of growth arrest; format: cell-based, human; conditions: 120h treatment at growth arresting concentration, then 72h without drug; except T778 with MLN9708
Experimental: The cellular proliferation rate was measured using the IncuCyte ZOOM live-cell imaging system (Essen Bioscience, Birmingham, UK) with the corresponding software application (version 2013BRev1). First the growth rate for each cell line was established to estimate the seeding numbers of cells corresponding to 15–30% of confluence at the start of the experiment and maximum 70% after 72h. The drug treatment was initiated approximately 18h after seeding. The proliferation rate was measured as cell confluence over time through the acquisition of photographs under phase contrast every third hour for the entire duration of the drug treatment. During the drug treatment, media were not changed, and cells were not split. The growth reducing drug concentration was defined as lowest drug concentration leading to significant decrease of cellular growth between 40 and 72h after start of treatment. To determine that concentration, plots were generated using IncuCyte software and differences in growth between 40 and 72h were calculated using least-square means with the ‘emmeans’ R package version 1.4.3 [25]. Growth arresting concentrations were defined as minimal drug concentration under which cell confluence between 96 and 120h increases by less than 3%. Though growth arrest occurred much earlier, these time points ensured that the growth arrest is a stable phenomenon. These growth arresting concentrations were used for drug withdrawal, apoptosis and cell cycle experiments. All the data were verified with the plots. The presented values correspond to median values from two (T449, all compounds) to five (all cell lines, triptolide) biological replicates.
An important prerequisite for clinical implementation of these compounds as treatment for liposarcoma is irreversibility of the induced growth inhibition. We thus assessed if the drugs were only transiently cytostatic, which is especially important in case of the compounds that seem to work mainly via cell cycle arrest (APO866, GSK2126458). Cells were treated with the compounds at growth arresting concentrations for 120h after which the compounds were removed and cell numbers were monitored for another 72h. […] To irreversibly arrest cell proliferation GSK2126458 had to be used at 10x higher concentrations (100x for GOT3) (S5 Fig). Those concentrations are above physiological ranges (see Table 2), and these effects should be accounted for assessing use of GSK2126458 in clinic.

[18] = cited from earlier work
[19] = intravenous, phase I, maximum tolerated dose

Structure (SMILES): CC(C)C[C@H](NC(=O)CNC(=O)c1cc(Cl)ccc1Cl)B1OC(=O)C(CC(=O)O)(CC(=O)O)O1 [MLN9708]
- IC50 [1]: 635 nM
- IC50 [2]: 99 nM
- IC50 [3]: 522 nM
- IC50 [4]: 841 nM
- IC50 [5]: 95 nM
- IC50 [6]: 629 nM
- IC50 [7]: 745 nM
- IC50 [8]: 743 nM
- IC50 [9]: 325 nM
- IC50 [10]: 553 nM
- IC50 [11]: 463 nM
- IC50 [12]: 1030 nM
- IC50 [13]: 774 nM
- concentration required to completely arrest more than half of the cell lines (liposarcoma cell lines [14]): at least 1 μM
- apoptosis (increase in % of apoptotic cells) (liposarcoma cell lines [15]): above 5%
- cell cycle phase in which cells are blocked (liposarcoma cell lines [16]): less specific arrest
- reversibility of growth inhibition after drug removal (liposarcoma cell lines [17]): irreversibly inhibited growth of all tested cell lines
- Cmax ([18]; human, in vivo): 30 to 300 nM
- Cmax [18, 19]: ≤ 1400 nM
- Css [18, 19]: 30 to 300 nM
